Data on 8 compounds can be found in US10299714B2, “Blood collection devices containing blood stabilization agent including variegin or analog thereof and/or a polysulfated disaccharide” (Becton, Dickinson and Company, priority 2010, dated 2019).

In data set [1] the test system is platelets. Kind of data set: Whole blood impedance aggregometry (Multiplate): platelet aggregation after room temperature storage of drawn blood. Format: cell-based, human. The source says: The blood was allowed to stand at room temperature, in undisturbed aliquots, until tested at the times indicated. Samples were inverted several times immediately prior to testing, to re-suspend blood cells that naturally settle over time.
Measurements: Testing of platelet function (which in this experiment, was aggregation activity) was done using the Multiplate instrument (Verum Diagnostics, Munich, Germany), which uses whole blood as the sample and an increase in impedance as the measurement of platelet aggregation. The instrument was used per manufacturer's instructions. Briefly, 300 microliters of isotonic saline was warmed in each reaction cuvette, and to this was added 300 microliters of the whole blood sample. In reactions where aspirin or other platelet antagonists (inhibitors) were added in vitro, 20 microliters (μL) of a stock solution of aspirin was spiked into the samples. The aggregation reaction was initiated by addition of a platelet agonist, in this case collagen, at 3.2 μg/ml and volume (20 μl) per manufacturer's instructions. Upon addition of the collagen, the impedance measurements began automatically, and were continued for 6 minutes, representing the full course along the x-axis in the graphs shown in FIG. 2. The graphs show platelet aggregation, as reported by impedance, as an arbitrary unitless measurement on the y-axis, over the 6-minute run time on the x-axis. Traces shown are raw platelet aggregation data delivered from the instrument. […] Representative data are shown for blood that dwells at room temperature after the initial draw for 1 hr, 24 hr, 48 hr, and 72 hr. Data are shown for the blood itself, as well for blood pre-treated with aspirin to inhibit platelet function immediately prior to testing.
The experiments were performed as described in Example 1. In this case, the data are plotted as a function of time that the blood sample dwells outside of the body (x-axis) versus platelet function as shown as the area under the curve (AUC) as one representation of the platelet aggregation signal. AUC is the integrated signal from the raw data traces shown in Example 1, and also is reported as a unitless measurement. The effective background level of the instrument is drawn as a dashed line across the bottom of the graph. Any AUC measurement of aggregation at or below this level was considered so weak as to be unreportable, essentially representing a “null” data level.
(§1) Relative stability of platelets was examined with respect to a range of concentrations of variegin (SEQ ID NO:1). Experiments were performed as described above, using either collagen or adenosine diphosphate (ADP) as agonists, all per manufacturer's recommended protocols. Table 2 lists a qualitative assessment of stability, namely how long after initially drawing the blood was platelet aggregation measureable above the effective instrument baseline, the time to first visual observation of clotted, insoluble material in the whole blood sample, and an assessment of the severity or extent of the presence of this insoluble material was also recorded.
These peptides were used as the blood stabilization agent, and were spiked into blood immediately after collection into an empty, evacuated blood collection tube, achieving a final concentration of 150 μM. The blood was allowed to dwell in a whole-blood state at room temperature, until assayed for platelet aggregation potential, all as described in Example 1. Agonists used included collagen and ADP, following manufacturer's instructions.

In data set [2] the test system is platelets. The experiment in a line: Platelet aggregation measurements using low dose ADP agonist, inventive tube versus hirudin tube. In kind it is cell-based, human. Also on record: key to Aggregation, AUC: area under curve of impedance aggregation trace, arbitrary unitless units. To be noted: ADP 1.25 μM. The procedure: Measurements: Testing of platelet function (which in this experiment, was aggregation activity) was done using the Multiplate instrument (Verum Diagnostics, Munich, Germany), which uses whole blood as the sample and an increase in impedance as the measurement of platelet aggregation. The instrument was used per manufacturer's instructions. Briefly, 300 microliters of isotonic saline was warmed in each reaction cuvette, and to this was added 300 microliters of the whole blood sample. In reactions where aspirin or other platelet antagonists (inhibitors) were added in vitro, 20 microliters (μL) of a stock solution of aspirin was spiked into the samples. The aggregation reaction was initiated by addition of a platelet agonist, in this case collagen, at 3.2 μg/ml and volume (20 μl) per manufacturer's instructions. Upon addition of the collagen, the impedance measurements began automatically, and were continued for 6 minutes, representing the full course along the x-axis in the graphs shown in FIG. 2. The graphs show platelet aggregation, as reported by impedance, as an arbitrary unitless measurement on the y-axis, over the 6-minute run time on the x-axis. Traces shown are raw platelet aggregation data delivered from the instrument. The duplicate traces evident in some of the graphs represent two duplicate measurement channels that always ran simultaneously, to assist with statistical significance of the data, and often so closely overlap as to look like only a single trace in some graphs. Representative data are shown for blood that dwells at room temperature after the initial draw for 1 hr, 24 hr, 48 hr, and 72 hr. Data are shown for the blood itself, as well for blood pre-treated with aspirin to inhibit platelet function immediately prior to testing.
Relative stability of platelets was examined in blood that was collected from 5 different human subjects using an inventive blood collection tube containing 150 μM variegin (SEQ ID NO:1)+1.17 USP/mL unfractionated heparin, and as a comparison, blood collection tubes containing hirudin, commercially available from Verum Diagnostica (Catalog #MP0600 for “Hirudin vacuum blood collection tube”). Experiments were carried out as described above in Example 1, using the whole blood impedance aggregometer, and using a low dose of ADP (1.25 μM final concentration) as the agonist.

Data set [3] deals with whole blood sample. Kind of data set: Visual inspection of stored whole blood sample for clotted, insoluble material. Conditions: peptide 150 μM; room temperature. Also on record: species or system human. As for the experimental part: as §1
These peptides were used as the blood stabilization agent, and were spiked into blood immediately after collection into an empty, evacuated blood collection tube, achieving a final concentration of 150 μM. The blood was allowed to dwell in a whole-blood state at room temperature, until assayed for platelet aggregation potential, all as described in Example 1. Agonists used included collagen and ADP, following manufacturer's instructions. Table 4 lists a qualitative assessment of stability, namely how long after initially drawing the sample was platelet aggregation measureable above the effective instrument baseline. Additionally, the time to first visual observation of clotted, insoluble material in the whole blood sample, and an assessment of the severity or extent of the presence of this insoluble material was also recorded. In some cases, only visual characterization of the amount of insoluble material was reported, without having performed any platelet aggregation measurements.
(§2) The results are shown in Table 5 which lists additives alone or in combination that were spiked into freshly drawn whole blood samples. […] For some of the conditions tested, only a subset of these three parameters was recorded.

Data set [4] deals with whole blood sample. Kind of data set: Visual inspection of stored whole blood sample for hemolysis. To be noted: Table 5. In kind it is cell-based, human.
Text: Skilled practitioners will appreciate the hemolyzed samples are an obvious visual clue that damage to blood cells has occurred, either during the collection, transport, or storage of blood samples. Although hemolysis is not necessarily detrimental to any one clinical assay, it is a well known interference for some tests, and thus it is preferable to avoid causing hemolysis. Hemolysis can be measured by visual scale (e.g., mild or slightly pink, moderate or noticeably red, or severe or dark red). Hemolysis can also be measured by spectroscopic measurement of the red color of the hemoglobin itself, and can be reported by the concentration of hemoglobin released into the serum or plasma (e.g., such that less than about 20 mg/dL concentration of released hemoglobin, or to an extent that the hemoglobin concentration cannot be measured visually or by spectroscopy represents “minor or negligible” hemolysis, about 20 to about 100 mg/dL represents “mild” hemolysis, about 100 to about 300 represents “moderate” hemolysis, or greater than about 300 mg/dL represents “severe” hemolysis).
as §2

Where [5] appears, read: Table 4, peptide spiked into blood to 150 μM final, collagen and ADP, room temperature.

Counter-ions that a name gives are not always drawn. Non-standard residues stand in square brackets, D forms with d. Residues, ends and D or L forms follow the SMILES beside them. Oic = O=C(O)[C@@H]1C[C@@H]2CCCC[C@@H]2N1; Phe(4-Me) = Cc1ccc(C[C@H](N)C(=O)O)cc1

As to `O=C(O)CC(O)(CC(=O)O)C(=O)O` [citrate, sodium citrate, reference compound], the “platelet aggregation, area under the curve (AUC), FIG. 3” value is “very close to the effective null level” in the data set on platelets [1] (24 hr after draw, collagen, no aspirin) and “no meaningful aggregation was detected” in the data set on platelets [1] (48 hr after draw, collagen, no aspirin). Besides, in the data set with platelets [1] (all times longer than 1 hr (24, 48, 72 hr), collagen, sodium citrate ([…]) tube), the “platelet aggregation signal (impedance, FIG. 2)” value is given as “clearly lost, resulting in almost non-measureable signal”. For the same compound, the “loss of platelet function relative to the 1 hr sample (FIG. 4)” value in the data set on platelets [1] (within 24 hr, collagen, average of three human subjects) is reported as “lost well more than half of their function”.
heparin [reference compound]: the “blood stabilization performance (data not shown)” value with platelets [1] (used alone at 1.17 U/ml) was “performed relatively poorly”.
Turning to Hirudin, the “Aggregation, AUC” value in the data set with platelets [2] (0 hr, Subject 1) is given as 34; in the data set with platelets [2] (0 hr, Subject 2), 18; with platelets [2] (0 hr, Subject 3), 84; in the data set with platelets [2] (0 hr, Subject 4) it was 113; in the data set on platelets [2] (0 hr, Subject 5), 59; with platelets [2] (24 hr, Subject 1), 27. Moreover, the “Aggregation, AUC” value with platelets [2] (24 hr, Subject 2) was found to be 15; in the data set on platelets [2] (24 hr, Subject 3) it was 25; in the data set with platelets [2] (24 hr, Subject 4), 22; in the data set on platelets [2] (24 hr, Subject 5), 37. The “area under the curve for the 1 h sample” value with platelets [2] (one of the five samples) stood at 18. Also, in the data set on platelets [2] (time zero), the “aggregation (AUC), mean +/- spread of the 5 samples” value is recorded as 62+/−38.
On to “SDQGDVAEPAMHKTAPPFDFEAIPEEYLDDES (Synthetic Peptide Variegin Fragment) [K10A]”, for which the “time after blood draw to solid clotting of the sample” value with whole blood sample [3] was at most 4 h.
Turning to `CC[C@H](C)[C@H](NC(=O)[C@H](C)NC(=O)[C@H](CCC(=O)O)NC(=O)[C@H](Cc1ccccc1)NC(=O)[C@H](CC(=O)O)NC(=O)[C@H](Cc1ccccc1)NC(=O)[C@@H]1CCCN1C(=O)[C@@H]1CCCN1C(=O)[C@H](C)NC(=O)[C@@H](NC(=O)[C@H](CCCCN)NC(=O)[C@H](Cc1cnc[nH]1)NC(=O)[C@H](CCSC)NC(=O)[C@H](CCCCN)NC(=O)[C@@H]1CCCN1C(=O)[C@H](CCC(=O)O)NC(=O)[C@H](C)NC(=O)[C@@H](NC(=O)[C@H](CC(=O)O)NC(=O)CNC(=O)[C@H](CCC(N)=O)NC(=O)[C@H](CC(=O)O)NC(=O)[C@@H](N)CO)C(C)C)[C@@H](C)O)C(=O)N1CCC[C@H]1C(=O)N[C@@H](CCC(=O)O)C(=O)N[C@@H](CCC(=O)O)C(=O)N[C@@H](Cc1ccc(O)cc1)C(=O)N[C@@H](CC(C)C)C(=O)N[C@@H](CC(=O)O)C(=O)N[C@@H](CC(=O)O)C(=O)N[C@@H](CCC(=O)O)C(=O)N[C@@H](CO)C(=O)O` [variegin], the “platelet aggregation signal (impedance, FIG. 2)” value is recorded as “preserved platelet function substantially at the level of function measured in the 1 hr-old sample” in the data set on platelets [1] (24 and 48 hrs after draw, collagen, tube with 150 μM variegin, room temperature); “slightly reduced but still sufficiently strong” in the data set on platelets [1] (72 hr after draw, collagen, tube with 150 μM variegin, room temperature). In addition, the “platelet aggregation, area under the curve (AUC), FIG. 3” value with platelets [1] (72 hr after draw, collagen, 150 μM variegin) is reported as “meaningful measurements even at 72 hr”. Moreover, the “Time after blood draw where aggregation was still measurable above baseline” value in the data set with platelets [1] (Table 2, 2 μM variegin, collagen or ADP, room temperature) is 2 h; in the data set on platelets [1] (Table 2, 15 μM variegin, collagen or ADP, room temperature) it was 24 h; in the data set on platelets [1] (Table 2, 50 μM variegin, collagen or ADP, room temperature) it was 24 h; in the data set with platelets [1] (Table 2, 75 μM variegin, collagen or ADP, room temperature) it was 48 to 72 h; in the data set with platelets [1] (Table 2, 150 μM variegin, collagen or ADP, room temperature) it was at least 72 h; with platelets [1] (setting [5]) it was 72 h. Moreover, the “platelet aggregation signal maintained relative to the 1 hr sample (FIG. 4)” value with platelets [1] (as of 48 hr, collagen, average of three human subjects, 150 μM variegin) was “well more than half of the signal was maintained”. The “strength of platelet aggregation signal (impedance, FIG. 2)” value with platelets [1] (fresh sample, 1 hr after draw, collagen […], tube with 150 μM variegin or sodium citrate ([…]), room temperature) is reported as “higher than the citrate reference sample”. Also, the “Visual inspection for hemolysis” value in the data set on whole blood sample [4] (additive alone at 150 μM) is recorded as “None-mild”.
Consider `O=S(=O)(O)OC[C@H]1O[C@@](COS(=O)(=O)O)(O[C@H]2O[C@H](COS(=O)(=O)O)[C@@H](OS(=O)(=O)O)[C@H](OS(=O)(=O)O)[C@H]2OS(=O)(=O)O)[C@@H](OS(=O)(=O)O)[C@@H]1OS(=O)(=O)O` [SOS, sucrose octasulfate], for which, in the data set with whole blood sample [4] (additive alone at 2 mM), the “Visual inspection for hemolysis” value is given as “None-mild”.
“GDVAEPKMHKTAPPFDFEAIPEEYLDDES (Synthetic Peptide Variegin Fragment) [Ct29]”: in the data set on platelets [1] (setting [5]), the “Time after blood draw where aggregation was still measurable above baseline” value lay in the range of 54 to 79 h.
For the compound `Cc1ccc(C[C@H](NC(=O)[C@@H](C)NC(=O)[C@@H]2CCCN2C(=O)[C@@H]2C[C@@H]3CCCC[C@@H]3N2C(=O)[C@H](N)CCCN=C(N)N)C(N)=O)cc1` [Thrombostatin (FM-19), rOicPaF(p-Me)—NH2] (H-[dR][Oic]P[dA][Phe(4-Me)]-NH2), the “Visual inspection for hemolysis” value in the data set on whole blood sample [4] (additive alone at 30 μM) is recorded as “None-mild”.
